Measured values from patent US20250041272A1, “COMPOSITIONS AND METHODS FOR TREATING CANCER VIA PTP1B INHIBITION” (priority 2021, published 2025).

How the values were obtained:
GEMM6 tumors = assay: GEMM6 melanoma tumor model; format: in vivo
Protocol: Tumor implantation, treatment and harvest. For animal studies, 1*10^5 B16F10 luciferase-tagged melanoma cells, 1*10^6 GEMM6 melanoma cells or 2*10^6 LCC cells were implanted subcutaneously into C57BL/6J mice (randomized, both males and females, 000664 The Jackson laboratory). When indicated, mice received intraperitoneal injections 7 days after implantation with 100 μl of 5 mg/kg cisplatin (Tocris), 100 μl of 10 mg/kg BVT948 (Tocris) or 100 μl of 30 mg/kg of vemurafenib. […]
(§1) Immunohistochemistry analysis. Immunohistochemistry assay was carried out in formalin-fixed, paraffin-embedded 4 μm sections using primary antibodies against F4:80 (AbD Serotec), CD11b (Abcam), CD4 (eBioscience) or CD8a (eBioscience) on a Discovery Ultra Automated IHC staining system (Ventana). Sections were then imaged using a ScanScope XT microscope (Aperio) and quantified using Aperio software.

B16F10 tumors = assay: Subcutaneous B16F10 melanoma tumor model; format: in vivo, mouse
Protocol: Tumor implantation, treatment and harvest. For animal studies, 1*10^5 B16F10 luciferase-tagged melanoma cells, 1*10^6 GEMM6 melanoma cells or 2*10^6 LCC cells were implanted subcutaneously into C57BL/6J mice (randomized, both males and females, 000664 The Jackson laboratory). When indicated, mice received intraperitoneal injections 7 days after implantation with 100 μl of 5 mg/kg cisplatin (Tocris), 100 μl of 10 mg/kg BVT948 (Tocris) or 100 μl of 30 mg/kg of vemurafenib. 5 mice were used per experimental group and tumors were harvested when they reached 1.5 cm in any direction.
as §1

[1] = test system: macrophage pro-inflammatory gene expression; assay: DAMP characterization assay: nutrient deprived tumor cell conditioned medium on macrophages; format: cell-based, mouse; settings: BVT948 5 μM, 24 hours
Protocol: DAMP characterization assay. B16F10 or GEMM6 cells were resuspended in DMEM deficient media with 1% penicillin-streptomycin (Gibco) and incubated for 3 days. Conditioned media was collected, filtered with a 0.2 μm filter and incubated with 0.35 U/ml proteinase K-agarose beads (Sigma Millipore) or 40 U/ml of benzonase endonuclease (Sigma Millipore) for 4 hours at 37° C. under rotation. Conditioned media was two-fold diluted with DMEM/F12 with 10% FBS, 1% penicillin-streptomycin (Gibco) and 20 ng/ml of M-CSF (Prospec), supplemented with 5 μM BVT948 (Sigma Millipore) and added to primary mural macrophages for 24 hours.
qRT-PCR. RNA was isolated using the RNeasy Plus Mini Kit (Quiagen) and cDNA was prepared using the Reverse Transcription System (Promega) with one-hour reverse transcription process. qRT-PCR was done using the PowerUp™ SYBR™ Green Master Mix (Applied Biosystems) on a QuantStudio Pro Real-time PCR system (Applied Biosystems) with a 95° C. pretreatment of 10 min, 50 cycles of 95° C., 10 sec and 60° C., 1 min and melt curve at the end. Analysis was performed with the 2^−ΔΔCT method(136).

[2] = BVT948 monotherapy, treatment from palpable tumors (50 mm^3), 8 mice per arm

BVT948
decrease in GEMM6 tumor growth, combination (GEMM6 tumors; BVT948 in combination with Vemurafenib): roughly 50% | tumor viability (H&E staining) (GEMM6 tumors; BVT948 monotherapy, GEMM6 tumors): not significantly changed | mice completely regressing and immune to rechallenge 1 month later (GEMM6 tumors; [2]): 3/8 | mice showing reductions in tumor growth (GEMM6 tumors; [2]): 6/8 | mice that died (most likely drug toxicity or autoimmune response) (GEMM6 tumors; [2]): 2/8 | GEMM6 tumor growth, monotherapy vs vehicle (GEMM6 tumors; larger tumors (200 mm^3), BVT948 10 mg/kg or Vemurafenib 30 mg/kg intraperitoneal): did not significantly reduce | B16F10 tumor growth, monotherapy vs vehicle (B16F10 tumors; BVT948 10 mg/kg or Cisplatin 5 mg/kg intraperitoneal, treatment from 50 mm^3): did not significantly reduce | decrease in B16F10 tumor growth, combination (B16F10 tumors; BVT948 in combination with Cisplatin): roughly 50% | reduction in tumor viability (H&E staining) (B16F10 tumors; BVT948 monotherapy, B16F10 tumors): 20% | intra-tumoral immune infiltrate (B16F10 tumors; BVT948 monotherapy, end-stage B16F10): some increases in macrophage and T cells | DAMP mediated macrophage activation (pro-inflammatory gene expression) ([1]; B16F10 nutrient deprivation conditioned medium): able to restore DAMP mediated macrophage activation | pro-inflammatory gene expression ([1]; GEMM6 nutrient deprivation conditioned medium): rescued pro-inflammatory gene expression
